According to patent US5157020A, “Synthetic senescent cell antigen” (Research Corporation Tech., Inc., priority 1990, dated 1992):
“Also recorded” adds a separate entry of the source. Where a SMILES comes first, the peptide text is derived from it.

How the values were obtained:
[1] = Solubility of peptides in physiologic solutions; type: physicochemical; conditions: even when coupled to BSA
Protocol: Peptides. Peptides were prepared by solid phase synthesis using an Applied Biosystems 430A automatic peptide synthesizer. They were analyzed by amino acid analysis, HPLC, sequencing, and/or FABS to determine purity. Amino acids are referred to by the standard single letter code. Peptides that are not soluble in phosphate buffered saline were dissolved in 1-2% NaDodSO4. Others were solubilized in acetic acid or trifluoroacetic acid, and sodium dodecyl sulfate (1-2%) is added. Once the peptides were in solution, they were conjugated to ovalbumin (5X crystallized) or BSA with 0.02% glutaraldehyde (32). The reaction was allowed to proceed for 30-60 min. blocked with ethanolamine, and the conjugate dialysed against PBS in tubing with a molecular weight cut off of ≤1000.

senescent cell IgG [2] = test: IgG binding and inhibition assay (competitive inhibition of senescent cell IgG binding to stored erythrocytes, 125I-Protein A); design: species or system human; conditions: for INHIBITION (%) of senescent cell IgG binding: Table 1, peptides 300 ug, senescent cell IgG 3 ug, 90 mins at room temperature, mean ± 1 SD of quadruplicate samples; for inhibition of senescent cell IgG binding (in words): competitive inhibition assay; for INHIBITION (%) of senescent cell IgG binding to erythrocytes, before or after DIDS modification: Table 4, 30 ug, stored red cells, ± SD, unmodified ANION 1 and COOH from a separate experiment
Protocol: IgG binding and inhibition assay. IgG was isolated from senescent RBC from 50 liters of blood and purified with Protein A Sepharose as previously described (2, 4). IgG eluted from senescent cells (SCIgG), rather than serum IgG, was used because normal serum contains antibodies to spectrin, actin, 2.1, etc. (28). Competitive inhibition studies were performed using synthetic peptides to absorb the IgG isolated from senescent erythrocytes. Intact dimeric, senescent cell IgG containing the Fc portion binds to senescent cells in situ and initiates their removal (1-7, 30). Fab fragments were not used because we were simulating the physiological situation. IgG isolated from aged erythrocytes binds specifically to senescent cells. […] Moreover, the specific binding capacity of the autoantibody was eliminated by absorption with purified senescent cell antigen (SCA; 7). […] Storage mimics normal aging in situ immunologically and biochemically (1-7, 30). The number of red cell-bound IgG molecules was quantitated before and after absorption using equilibrium binding kinetics (7, 30, 31). Details of the methods are given elsewhere (27). Percent inhibition was calculated from the following formula: 100[1-(x-b/T-b)] where x=molecules of IgG autoantibody bound per cell; T=total number of IgG antibody molecules bound in the absence of inhibitor; b=background Protein A binding.
Competitive inhibition studies were performed using synthetic peptides to absorb the IgG isolated from senescent erythrocytes. IgG binding and inhibition were determined with a protein A binding assay. This biological assay measures the fate of erythrocytes in vitro and in vivo (1, 2, 4).
IgG binding and inhibition assay. Competitive inhibition studies were performed using synthetic peptides to absorb the IgG isolated from senescent erythrocytes. This is the same IgG that initiates phagocytosis in situ. The Fc portion IgG is required for binding and phagocytosis of cells by macrophages (3, 2, 4, 7, 29). Fab fragments were not used because we were simulating the physiological situation. Intact dimeric, senescent cell IgG containing the Fc portion binds to senescent cells in situ and initiates their removal (3, 32, 2, 4, 6, 17, 7). Only IgG isolated from aged erythrocytes binds specifically to senescent cells. […] Moreover, the specific binding capacity of the autoantibody was eliminated by absorption with purified senescent cell antigen (39). […] Storage mimics normal aging in situ immunologically and biochemically (32, 2, 4, 6, 29, 7). After incubation with absorbed IgG, cells were washed four times with 40-50 volumes of phosphate buffered saline containing 0.2% bovine serum albumin (BSA, fraction V, Sigma, St. Louis, Mo.) and 0.5% glucose. Washed cells were transferred to BSA-coated tubes (5×10^7 cells/50 ul) and incubated for 30 min. at 37° C. with ^125 I-Protein A (Amersham, Arlington Heights, Ill. 30-38 mCi/mg, 10-15 ng/tube). Cells were then washed four times and transferred to new tubes before counting in a gamma scintillation counter (Beckman, Gamma 5,500). The number of red cell-bound IgG molecules was quantitated before and after absorption using equilibrium binding kinetics (7).
Scatchard analysis was performed. Scathard, NY Acad. Sci. 51:660-672 (1949), incorporated herein by reference. Percent inhibition was calculated from the following formula: 100[1-(x-b/T-b)] where x=molecules of IgG autoantibody bound per cell; T=total number of IgG antibody molecules bound in the absence of inhibitor; b=background Protein A binding.

[3] = tested on: erythrocyte anion transport; test: Peptide inhibition of sulfate influx (anion transport) in erythrocytes; type: cell-based, human; conditions: for inhibition of anion transport (in words): equimolar amounts of peptide and sulfate
Protocol: Anion transport and DIDS inhibition measurements. Sulfate exchange is inhibited by […]. Stilbenedisulfonate derivatives such as DIDS inhibit anion transport by binding to at least two lysine residues in the membrane-spanning region of band 3 (45, 23, 35).
Peptide inhibition of sulfate "influx" experiments were performed essentially according to method of Jennings (46) using 300 mM sucrose, 10 mM Tris-HEPES, pH 7.0, as the "influx" buffer (47). Washed cells were incubated in 20-30 volumes of 110 mM K2 SO4 for 10 min at 37° C. to replace intracellular chloride. The cells were centrifuged and the supernatant removed and replaced with 110 mM K2 SO4 for 10 min. This was repeated 3 times. After the last centrifugation, cells were resuspended 300 mM sucrose, 10 mM Tris-HEPES, pH 7.0, and washed once. Cells were suspended to 2×10^8 cells/ml in 2 ml influx buffer at 37° C. Radioactive sulfate (0.01 mM) was added (582 mCi/mM) at suitable time intervals. Samples were taken and added to 18 volumes of ice cold 1.15% KCl (154 mM KCl) buffered to pH 7.4 with MOPS ("wash buffer"). The high chloride concentration, temperature, and pH all inhibit sulfate transport. Cells were washed twice to remove external sulfate at 0° C. with wash buffer. All samples were deproteinized with trichloracetic acid (final concentration 6.7%) and counted with Ready-Solv HP/6 (Beckman, Fullerton, Calif.) in a liquid scintillation counter. For peptide inhibition of sulfate transport, 0.01 mM of peptide(s) were added to the radioactive sulfate prior to addition to cells suspended in influx buffer.

senescent cell IgG [4] = test: Immunoblotting of synthetic peptides with IgG autoantibody from senescent erythrocytes; type: binding, human; conditions: autoradiograph of immunoblot, FIG. 4
Protocol: Sodium dodecyl sulfate (NaDodSO4) polyacrylamide gel electrophoresis and immunostaining of peptides. Peptides were analyzed on 6-25% or 12-25% linear gels (6, 7, 27-29). Immunoautoradiography was performed by immunoblotting as described previously (6, 7, 28-30). Immunoblots were exposed to Kodak Ortho G (OG-1) film at -70° C. using our standard procedures (30, 45).
We used immunoblotting of the peptides followed by reaction with IgG eluted from senescent red cells (SCIgG) to localize the aging antigen site (FIG. 4A and B). We also used the IgG binding and inhibition assay at a singe concentration of peptide and performed Scatchard analysis (Table 2). […] Peptides that were negative by immunoblotting were also negative in the inhibition assay (FIG. 4 and Table 2).

[5] = at concentrations up to / as high as 100 ug
[6] = equimolar peptide and sulfate (0.01 mM)

| Compound | solubility [1] | INHIBITION (%) of senescent cell IgG binding (senescent cell IgG [2]) | inhibition of senescent cell IgG binding (in words) (senescent cell IgG [2]) | inhibition of anion transport (in words) [3] | binding of senescent cell IgG to peptide in immunoblots (senescent cell IgG [4]) | also measured |
| --- | --- | --- | --- | --- | --- | --- |
| CC[C@H](C)[C@H](NC(=O)CNC(=O)[C@H](Cc1ccccc1)NC(=O)[C@H](CC(C)C)NC(=O)[C@@H](NC(=O)[C@H](C)NC(=O)[C@H](CC(C)C)NC(=O)[C@@H]1CCCN1C(=O)[C@@H](NC(=O)[C@H](CCCNC(=N)N)NC(=O)[C@H](CO)NC(=O)[C@H](CC(C)C)NC(=O)[C@@H](NC(=O)[C@@H]1CCCN1C(=O)[C@H](CCC(=O)O)NC(=O)[C@@H](N)CCSC)[C@@H](C)CC)[C@@H](C)CC)C(C)C)C(=O)N[C@@H](Cc1ccccc1)C(=O)N[C@@H](CC(C)C)C(=O)O [776-793, MEPILSRIPLAVLFGIFL] (H-MEPILSRIPLAVLFGIFL-OH) | not completely soluble |  |  |  |  |  |
| CC[C@H](C)[C@H](NC(=O)CNC(=O)[C@H](CO)NC(=O)[C@H](CC(C)C)NC(=O)[C@H](CO)NC(=O)[C@@H](NC(=O)[C@@H](NC(=O)CNC(=O)[C@H](CCSC)NC(=O)[C@H](Cc1ccc(O)cc1)NC(=O)[C@H](CC(C)C)NC(=O)[C@H](Cc1ccccc1)NC(=O)[C@@H](NC(=O)CNC(=O)[C@@H](N)Cc1ccccc1)[C@@H](C)CC)C(C)C)[C@@H](C)O)C(=O)N[C@@H](CCC(N)=O)C(=O)N[C@@H](CC(C)C)C(=O)O [789-805, FGIFLYMGVTSLSGIQL] (H-FGIFLYMGVTSLSGIQL-OH) | not completely soluble |  |  |  |  |  |
| CC[C@H](C)[C@H](NC(=O)CNC(=O)[C@H](CO)NC(=O)[C@@H](N)CC(C)C)C(=O)N[C@@H](CCC(N)=O)C(=O)N[C@@H](CC(C)C)C(=O)N[C@@H](Cc1ccccc1)C(=O)N[C@@H](CC(=O)O)C(=O)N[C@@H](CCCNC(=N)N)C(=O)N[C@H](C(=O)N[C@@H](CC(C)C)C(=O)N[C@@H](CC(C)C)C(=O)N[C@@H](CC(C)C)C(=O)N[C@@H](Cc1ccccc1)C(=O)N[C@@H](CCCCN)C(=O)N1CCC[C@H]1C(=O)N1CCC[C@H]1C(=O)N[C@@H](CCCCN)C(=O)N[C@@H](Cc1ccc(O)cc1)C(=O)O)[C@@H](C)CC [800-818, LSGIQLFDRILLLFKPPKY] (H-LSGIQLFDRILLLFKPPKY-OH) | not completely soluble |  |  |  |  |  |
| AGVANQLLDRFIFEDQ [CYTO, reference compound] |  | 0% | does not inhibit |  |  |  |
| FKPPKY (UniProt P02730 813-818, looked up, fragment) [N6] |  |  |  | potent inhibitors of anion transport |  | inhibition of senescent cell IgG binding (senescent cell IgG [2]; at 10 ug): 48±1%; inhibition of senescent cell IgG binding (senescent cell IgG [2]; at 10 ug, listed as COOH hexamer (N6)): ~ 50% |
| LFKPPKYHPDVPYVKR [COOH] |  | 99 ± 1% | inhibitory over a range of 3 to 100 ug | potent inhibitors of anion transport | binding | inhibition of anion transport ([3]; at 5 min, FIG. 7, compared to control without peptide): 52±3%; INHIBITION (%) of senescent cell IgG binding to erythrocytes, before or after DIDS modification (senescent cell IgG [2]): 20 ± 1%; inhibition of senescent cell IgG binding (senescent cell IgG [2]; [5]): ≤ 50% |
| LRKFKNSSYFPGKLR [ANION 2] |  | 30 ± 12% | only slightly inhibitory; also recorded: only weakly inhibitory |  | bound | inhibition of anion transport [3, 6]: 38±4% |
| QKLSVPDGFKVSNSSARGW [GLYCOS] |  |  | only weakly inhibitory |  | Binding of antibody | INHIBITION (%) of senescent cell IgG binding to erythrocytes (senescent cell IgG [2]; Table 2, all peptides tested at 30 ug, ± standard deviation): 9 ± 0% |
| SKLIKIFQDHPLQKTYN [ANION 1] |  | 88 ± 7% | inhibitory over a range of 3 to 100 ug | does not inhibit anion transport | trace binding | inhibition of anion transport [3, 6]: 8±7%; INHIBITION (%) of senescent cell IgG binding to erythrocytes, before or after DIDS modification (senescent cell IgG [2]): 32 ± 2%; inhibition of senescent cell IgG binding (senescent cell IgG [2]; [5]): ≤ 50% |
| YHPDVPYVKR [818-827] |  |  |  |  |  | percent inhibition of senescent cell IgG binding (senescent cell IgG [2]; FIG. 2 legend, 12.2 ug): 54±7; inhibition of senescent cell IgG binding (senescent cell IgG [2]; at 30 ug): 54±3% |
